Results: the NIST ThermoML archive (doi:10.1016/j.jct.2009.05.009)
± gives the expanded uncertainty stated by the source.

Experiment: xn = mol fraction of the nth substance listed
Settings: 101.3 kPa, Liquid, Vibrating tube method

CCOS(=O)(=O)[O-].CCn1cc[n+](C)c1 [1-ethyl-3-methylimidazolium ethyl sulfate] + O
mass density [kg/m3]
Settings	318.15 K	323.15 K	328.15 K	333.15 K	338.15 K	343.15 K
x2 = 0	–	1224.1 ± 2.3	1221.1 ± 2.3	1218.1 ± 2.3	1215.1 ± 2.3	1212 ± 2.3
x2 = 0.0514	–	1223 ± 2.3	1220 ± 2.3	1216.9 ± 2.3	1213.8 ± 2.3	1210.7 ± 2.3
x2 = 0.13	–	1221.3 ± 2.2	1218.2 ± 2.2	1215.2 ± 2.2	1212.1 ± 2.2	1208.9 ± 2.2
x2 = 0.1783	–	1220.1 ± 2.2	1216.9 ± 2.2	1213.9 ± 2.2	1210.9 ± 2.2	1207.8 ± 2.2
x2 = 0.2168	–	1219.1 ± 2.2	1216 ± 2.2	1212.9 ± 2.2	1209.9 ± 2.2	1206.7 ± 2.2
x2 = 0.2642	–	1217.6 ± 2.2	1214.6 ± 2.2	1211.5 ± 2.2	1208.4 ± 2.2	1205.3 ± 2.1
x2 = 0.3054	–	1216.3 ± 2.1	1213.2 ± 2.1	1210.1 ± 2.1	1207 ± 2.1	1203.9 ± 2.1
x2 = 0.3568	–	1214.4 ± 2.1	1211.2 ± 2.1	1208.2 ± 2.1	1205.1 ± 2.1	1201.9 ± 2.1
x2 = 0.4008	–	1212.4 ± 2.1	1209.3 ± 2.1	1206.2 ± 2.1	1203.1 ± 2.1	1200 ± 2.1
x2 = 0.4613	1212.4 ± 2.1	1209.3 ± 2.1	1206.1 ± 2.1	1203.1 ± 2.1	1200 ± 2.1	1196.8 ± 2.1
x2 = 0.5002	1210.1 ± 2.2	1206.9 ± 2.2	1203.8 ± 2.2	1200.7 ± 2.2	1197.6 ± 2.2	1194.3 ± 2.2
x2 = 0.5584	1206 ± 2.2	1202.8 ± 2.2	1199.6 ± 2.2	1196.4 ± 2.2	1193.2 ± 2.2	1189.9 ± 2.2
x2 = 0.6124	1201.1 ± 2.3	1197.8 ± 2.3	1194.6 ± 2.3	1191.4 ± 2.3	1188.1 ± 2.3	1184.7 ± 2.3
x2 = 0.6698	1194.3 ± 2.4	1191 ± 2.4	1187.7 ± 2.4	1184.3 ± 2.4	1180.9 ± 2.5	1177.4 ± 2.5
x2 = 0.7125	1187.6 ± 2.7	1184.3 ± 2.7	1181 ± 2.8	1177.5 ± 2.8	1173.9 ± 2.7	1170.4 ± 2.7
x2 = 0.7635	1177.2 ± 3.1	1173.7 ± 3.1	1170.2 ± 3.1	1166.8 ± 3.1	1163.5 ± 3.1	1159.9 ± 3.1
x2 = 0.8006	1167 ± 3.9	1163.5 ± 3.9	1160 ± 3.9	1156.6 ± 3.9	1153.2 ± 3.9	1149.5 ± 3.9
x2 = 0.8497	1148.9 ± 5	1145.2 ± 5	1141.6 ± 5	1138.3 ± 5	1134.9 ± 5	1131.3 ± 5
x2 = 0.8963	1123 ± 11	1119.6 ± 11	1116.4 ± 11	1112.9 ± 11	1109.3 ± 11	1106 ± 11
